From ChEMBL document CHEMBL4808229, “Privileged scaffolds in medicinal chemistry: Studies on pyrazolo[1,5-a]pyrimidines on sulfonamide containing Carbonic Anhydrase inhibitors” (Bioorg Med Chem Lett, 2021)

Molecular target: Carbonic anhydrase 9 (Homo sapiens, UniProt Q16790)
Experiment: Inhibition of recombinant human carbonic anhydrase 9 by stopped-flow CO2 hydration assay

**Q.** How did the Ki turn out when `CCOC(=O)c1cnc2c(NC(=S)NCc3ccc(S(N)(=O)=O)cc3)cnn2c1C` was run?
**A.** 23 nM

**Q.** With `CCOC(=O)c1cnc2c(NC(=O)c3ccc(Cl)c(S(N)(=O)=O)c3)cnn2c1C` as the molecule, how does the Ki read?
**A.** 6.5 nM

**Q.** How did the Ki turn out when `CCOC(=O)c1cnc2c(NC(=S)Nc3cccc(S(N)(=O)=O)c3)cnn2c1C` was run?
**A.** 312 nM

**Q.** Which Ki does the source give for `Cc1c(C(=O)O)cnc2c(NC(=O)Nc3ccc(S(N)(=O)=O)cc3)cnn12` here?
**A.** 851 nM

**Q.** `Cc1c(C(=O)O)cnc2c(NC(=O)NCc3ccc(S(N)(=O)=O)cc3)cnn12` was tested. Which Ki did it give?
**A.** 703 nM

**Q.** How did the Ki turn out when `CCOC(=O)c1cnc2c(NC(=O)NCc3ccc(S(N)(=O)=O)cc3)cnn2c1C` was run?
**A.** 9.7 nM

**Q.** Which Ki does the source give for `CCOC(=O)c1cnc2c(NC(=S)NCCc3ccc(S(N)(=O)=O)cc3)cnn2c1C` here?
**A.** 919 nM

**Q.** For `CCOC(=O)c1cnc2c(NC(=S)Nc3ccc(S(N)(=O)=O)cc3)cnn2c1C`, which Ki is on record?
**A.** 680 nM

**Q.** How did the Ki turn out when `Cc1c(C(=O)O)cnc2c(NC(=O)c3ccc(S(N)(=O)=O)cc3)cnn12` was run?
**A.** 142 nM

**Q.** `CCOC(=O)c1cnc2c(NC(=O)NCCc3ccc(S(N)(=O)=O)cc3)cnn2c1C` was tested. Which Ki did it give?
**A.** 975 nM

**Q.** `Cc1c(C(=O)O)cnc2c(NC(=O)Nc3cccc(S(N)(=O)=O)c3)cnn12` was tested. Which Ki did it give?
**A.** 523 nM

**Q.** With `Cc1c(C(=O)O)cnc2c(NC(=O)NCCc3ccc(S(N)(=O)=O)cc3)cnn12` as the molecule, how does the Ki read?
**A.** 212 nM

**Q.** With `CCOC(=O)c1cnc2c(NC(=O)c3ccc(S(N)(=O)=O)cc3)cnn2c1C` as the molecule, how does the Ki read?
**A.** 142 nM

**Q.** How did the Ki turn out when `CCOC(=O)c1cnc2c(NC(=O)N/C=C/c3ccc(S(N)(=O)=O)cc3)cnn2c1C` was run?
**A.** 843 nM
